From patent US20230033285A1, “Protease Inhibitors for Treatment of Coronavirus Infections” (The Scripps Research Institute, priority 2021, published 2023)

These molecules were tested on SARS-CoV-2 (assay: microbe, parasite or virus in culture). Conditions: Severe acute respiratory syndrome coronavirus 2, HeLa-ACE2, 24 h, read-out: EC50, μM (Hela).
Type: cell-based

Row | Compound | EC50 [µM]
1 | CC(C)C[C@H](NC(=O)OCc1cccc(Cl)c1)C(=O)N[C@@H](C[C@@H]1CCNC1=O)C(=O)COC(=O)Cc1ccccc1 [Compound 121, (S)-3-((S)-2-((((3-chlorobenzyl)oxy)carbonyl)amino)-4-methylpentanamido)-2-oxo-4-((S)-2-oxopyrrolidin-3-yl)butyl 2-phenylacetate] | > 1

Same assay, conditions: Severe acute respiratory syndrome coronavirus 2; HeLa-ACE2 cells infected with SARS-CoV-2, 24 h, immunofluorescence of infected cells; read-out: EC50, μM (Hela)

Row | Compound | EC50 [µM]
2 | Cc1cccc(C)c1NC(=O)C(=O)N[C@@H](CC(C)C)C(=O)NC(C[C@@H]1CCNC1=O)C(=O)CO (stereo partly drawn) [Compound 13, N^1-(2,6-dimethylphenyl)-N^2-((2S)-1-((4-hydroxy-3-oxo-1-((S)-2-oxopyrrolidin-3-yl)butan-2-yl)amino)-4-methyl-1-oxopentan-2-yl)oxalamide] | 0.2 to 0.5
3 | Cc1ccccc1NC(=O)C(=O)N1C[C@@H]2CCC[C@@H]2[C@H]1C(=O)N[C@@H](C[C@@H]1CCCNC1=O)C(=O)CO [Compound 91, (1S,3aR,6aS)-N-((S)-4-hydroxy-3-oxo-1-((S)-2-oxopiperidin-3-yl)butan-2-yl)-2-(2-oxo-2-(o-tolylamino)acetyl)octahydrocyclopenta [c]pyrrole-1-carboxamide] | 0.05 to 0.2
4 | CC(C)(C)NC(=O)C(=O)N1C[C@@H]2CCC[C@@H]2[C@H]1C(=O)N[C@@H](C[C@@H]1CCNC1=O)C(=O)CO [Compound 31, (1S,3aR,6aS)-2-(2-(tert-butylamino)-2-oxoacetyl)-N-((S)-4-hydroxy-3-oxo-1-((S)-2-oxopyrrolidin-3-yl)butan-2-yl)octahydrocyclopenta[c]pyrrole-1-carboxamide] | > 1
5 | Cc1ccccc1NC(=O)C(=O)N[C@@H](CC1CC1)C(=O)N[C@@H](C[C@@H]1CCCNC1=O)C(=O)CO [Compound 88, N^1-((S)-3-cyclopropyl-1-(((S)-4-hydroxy-3-oxo-1-((S)-2-oxopiperidin-3-yl)butan-2-yl)amino)-1-oxopropan-2-yl)-N^2-(o-tolyl)oxalamide] | < 0.05
6 | CC(C)(NC(=O)C(=O)N1C[C@@H]2CCC[C@@H]2[C@H]1C(=O)N[C@H](C=O)C[C@@H]1CCCNC1=O)C(F)(F)F [Compound 47, (1S,3aR,6aS)-2-(2-oxo-2-((1,1,1-trifluoro-2-methylpropan-2-yl)amino)acetyl)-N-((S)-1-oxo-3-((S)-2-oxopiperidin-3-yl)propan-2-yl)octahydrocyclopenta[c]pyrrole-1-carboxamide] | 0.5 to 1
7 | CCCCCCCCCCCCCCC(=O)OCC(=O)[C@H](C[C@@H]1CCNC1=O)NC(=O)[C@H](CC(C)C)NC(=O)c1cc2c(OC)cccc2[nH]1 [Compound 137, (S)-3-((S)-2-(4-methoxy-1H-indole-2-carboxamido)-4-methylpentanamido)-2-oxo-4-((S)-2-oxopyrrolidin-3-yl)butyl pentadecanoate] | 0.2 to 0.5
8 | CC(C)C[C@H](NC(=O)C(=O)Nc1ccccc1F)C(=O)N[C@@H](C[C@@H]1CCCNC1=O)C(=O)COC(=O)OC(C)C [Compound 107, (S)-3-((S)-2-(2-((2-fluorophenyl)amino)-2-oxoacetamido)-4-methylpentanamido)-2-oxo-4-((S)-2-oxopiperidin-3-yl)butyl isopropyl carbonate] | < 0.05
9 | CC(C)CCC(=O)N1CC2(CC2)C[C@H]1C(=O)N[C@H](C#N)C[C@@H]1CCNC1=O [Compound 117, (S)-N-((S)-1-cyano-2-((S)-2-oxopyrrolidin-3-yl)ethyl)-5-(4-methylpentanoyl)-5-azaspiro[2.4]heptane-6-carboxamide] | > 1
10 | CC1(C[C@H](NC(=O)C(=O)NC23CC(F)(C2)C3)C(=O)N[C@@H](C[C@@H]2CCCNC2=O)C(=O)CO)CCC1 [Compound 111, N^1-(3-fluorobicyclo[1.1.1]pentan-1-yl)-N^2-((S)-1-(((S)-4-hydroxy-3-oxo-1-((S)-2-oxopiperidin-3-yl)butan-2-yl)amino)-3-(1-methylcyclobutyl)-1-oxopropan-2-yl)oxalamide] | 0.2 to 0.5
11 | O=C(Nc1ccccc1F)C(=O)N1C[C@@H]2CCC[C@@H]2[C@H]1C(=O)N[C@@H](C[C@@H]1CCCNC1=O)C(=O)CO [Compound 33, (1S,3aR,6aS)-2-(2-((2-fluorophenyl)amino)-2-oxoacetyl)-N-((S)-4-hydroxy-3-oxo-1-((S)-2-oxopiperidin-3-yl)butan-2-yl)octahydrocyclopenta[c]pyrrole-1-carboxamide] | 0.05 to 0.2
12 | CC(C)C[C@H](NC(=O)C(=O)Nc1ccccc1F)C(=O)N[C@@H](C[C@@H]1CCNC1=O)C(=O)COC(=O)OC(C)C [Compound 108, (S)-3-((S)-2-(2-((2-fluorophenyl)amino)-2-oxoacetamido)-4-methylpentanamido)-2-oxo-4-((S)-2-oxopyrrolidin-3-yl)butyl isopropyl carbonate] | 0.05 to 0.2
13 | CC(C)C[C@H](NC(=O)c1cc(-c2ccccn2)on1)C(=O)N[C@H](C=O)C[C@@H]1CCCNC1=O [Compound 127, N-((S)-4-methyl-1-oxo-1-(((S)-1-oxo-3-((S)-2-oxopiperidin-3-yl)propan-2-yl)amino)pentan-2-yl)-5-(pyridin-2-yl)isoxazole-3-carboxamide] | 0.5 to 1
14 | CC(=O)NC(CC(C)C(F)(F)F)C(=O)N1C[C@H]2[C@@H]([C@H]1C(=O)N[C@H](C#N)C[C@@H]1CCCNC1=O)C2(C)C (stereo partly drawn) [Compound 131, (1R,2S,5S)-3-(2-acetamido-5,5,5-trifluoro-4-methylpentanoyl)-N-((S)-1-cyano-2-((S)-2-oxopiperidin-3-yl)ethyl)-6,6-dimethyl-3-azabicyclo[3.1.0]hexane-2-carboxamide] | 0.5 to 1
15 | O=C[C@H](C[C@@H]1CCCNC1=O)NC(=O)[C@@H]1[C@H]2CCC[C@H]2CN1C(=O)COc1ccc(Cl)cc1Cl [Compound 45, (1S,3aR,6aS)-2-(2-(2,4-dichlorophenoxy)acetyl)-N-((S)-1-oxo-3-((S)-2-oxopiperidin-3-yl)propan-2-yl)octahydrocyclopenta[c]pyrrole-1-carboxamide] | 0.05 to 0.2
16 | CC1(C)[C@@H]2[C@@H](C(=O)N[C@H](C=O)C[C@@H]3CCCNC3=O)N(C(=O)C(=O)NC3CCCCC3)C[C@@H]21 [Compound 48, (1R,2S,5S)-3-(2-(cyclohexylamino)-2-oxoacetyl)-6,6-dimethyl-N-((S)-1-oxo-3-((S)-2-oxopiperidin-3-yl)propan-2-yl)-3-azabicyclo[3.1.0]hexane-2-carboxamide] | 0.5 to 1
17 | Cc1ccc(C2(NC(=O)C(=O)N[C@@H](CC(C)C)C(=O)N[C@@H](C[C@@H]3CCNC3=O)C(=O)CO)CC2)cc1 [Compound 23] | 0.5 to 1
18 | N#C[C@H](C[C@@H]1CCCNC1=O)NC(=O)[C@@H]1[C@H]2CCC[C@H]2CN1C(=O)COc1ccc(Cl)cc1Cl [Compound 61, (1S,3aR,6aS)-N-((S)-1-cyano-2-((S)-2-oxopiperidin-3-yl)ethyl)-2-(2-(2,4-dichlorophenoxy)acetyl)octahydrocyclo-penta[c]pyrrole-1-carboxamide] | 0.5 to 1
19 | CC(C)CC(=O)OCC(=O)[C@H](C[C@@H]1CCCNC1=O)NC(=O)[C@H](CC(C)C)NC(=O)C(=O)Nc1ccccc1F [Compound 104, (S)-3-((S)-2-(2-((2-fluorophenyl)amino)-2-oxoacetamido)-4-methylpentanamido)-2-oxo-4-((S)-2-oxopiperidin-3-yl)butyl 3-methylbutanoate] | 0.05 to 0.2
